Laboratory results taken from patent US20230048349A1, “RECIRCULATING AQUACULTURE SYSTEM AND METHODS THEREOF” (THE TEXAS A&M UNIVERSITY SYSTEM, priority 2021, published 2023).
Values after ≈ are worked out from the molar mass of the structure shown. Marks after values point to notes of the source that are not given here.

What was measured:
[1] = test system: Streptococcus agalactiae; assay: Growth inhibition test in liquid medium (OD600); type: cell-based; conditions: S. agalactide; for MIC: pH 6.0, 30° C.
Experimental: (§1) These compounds were used to assess the antimicrobial efficacy of PHB and chitosan under the best scenario. Various concentrations of PHB intermediates (5-125 mM), COS (0.2-3 mM), or mixtures of 3-HB+COS (i.e., Mixture 1 (4 mM 3-HB+0.1 mM COS), Mixture 2 (12 mM 3-HB+0.3 mM COS), Mixture 3 (24 mM 3-HB+0.6 mM COS), and Mixture 4 (60 mM 3-HB+1.5 mM COS)) were used based on previously in vitro antimicrobial studies using PHB or chitosan. For S. agalactiae and RHA1, tryptic soy broth (TSB) and Reasoner's 2A (R2A) media were used, respectively. The pH of all growth mediums (i.e., LB, TSB, or R2A) was adjusted to 6.0 based on the typical pH value found in aquatic animals' gut and the optimized antimicrobial activity of PHB. The culture tubes were inoculated with 2% v/v of the pre-grown strains (optical density (OD600) of 1.0) and incubated at 30° C. under 150 rpm. The bacterial growth was determined by absorbance at OD600. The growth of tested strains in the absence of PHB or chitosan intermediates were used as controls. The inhibition efficiency (%) was calculated using Eq. (1): […]
(§2) where ODcontrol and ODsample refer to the highest optical densities of the growth curves for the controls and samples, respectively.

[2] = test system: Rhodococcus jostii RHA1; assay: Growth inhibition test in liquid medium (OD600); type: cell-based; conditions: R. jostii RHA1; for MIC: pH 6.0, 30° C.
Experimental: as §1, §2

[3] = test system: Escherichia coli; assay: Growth inhibition test in liquid medium (OD600); type: cell-based; conditions: E. coli; for MIC: pH 6.0, 30° C.
Experimental: as §1, §2

[4] = test system: Bacillus megaterium; assay: Growth inhibition test in liquid medium (OD600); type: cell-based; conditions: B. megaterium; for MIC: pH 6.0, 30° C.
Experimental: as §1, §2

[5] = test system: Vibrio campbellii; assay: Growth inhibition test in liquid medium (OD600); type: cell-based; conditions: V. campellii; for MIC: pH 6.0, 30° C.
Experimental: as §1, §2

[6] = test system: Aeromonas hydrophila; assay: Growth inhibition test in liquid medium (OD600); type: cell-based; conditions: A. hydrophila
Experimental: as §1, §2

[7] = test system: V. campbellii and A. hydrophila; assay: Growth inhibition test, ranges stated over two G− pathogens (Example 8); type: cell-based, Vibrio campbellii; Aeromonas hydrophila; conditions: range over V. campbellii and A. hydrophila
Experimental: as §1, §2

[8] = test system: V. campbellii and A. hydrophila; assay: Growth inhibition test of SCFAs and MCFAs, ranges over two G− pathogens (Example 15); type: cell-based, Vibrio campbellii; Aeromonas hydrophila; conditions: range over V. campbellii and A. hydrophila; for MIC: LB pH 6, 5-125 mM tested
Experimental: (§3) Growth Inhibition Tests: Antipathogenic Properties of SCFAs and MCFAs. Growth inhibition tests to measure optical density (OD600) and calculate % inhibition efficiencies, minimum, and median inhibitory concentrations (MIC and IC50) were conducted as described previously. […] The PHA intermediates (SCFAs and MCFAs) are water-soluble, representing the PHA degradation products in the gastrointestinal tract of aquatic animals, allowing to assess the antipathogenic efficacy of PHA under the best scenario. The culture tubes were incubated at 30° C. under 150 rpm. The growths of tested strains in the absence of PHA intermediates were used as controls.

[9] = test system: Vibrio-challenged Artemia; assay: Artemia pathogen challenge test (Example 17); type: in vivo, Artemia franciscana; conditions: after three days; supplement 1 g/L; V. campbellii 10^8 cells/ml
Experimental: The pathogen challenge tests were designed to determine the effects of individual supplements on the survival of Vibrio-challenged Artemia. The pathogen challenge tests were conducted as described in the starvation tests, except that Artemia cultures (one day old) with each of the abovementioned supplements (1 g/L) were exposed to a lethal dose (10^8 cells/ml) of live V. campbellii as determined previously. In all treatments, 250 mg/L of yeast was added initially as a feed. Unchallenged and Vibrio-challenged Artemia were used as negative and positive controls, respectively. The survival of Artemia was monitored daily for three days.

[10] = test system: S. agalactiae; assay: Growth inhibition test of SCFAs and MCFAs (Example 15); type: cell-based, Streptococcus agalactiae
Experimental: as §3

CC(O)CC(=O)O (centres unmarked) [3-HB, 3-hydroxybutyrate]
Inhibition Efficiency (%) ([1]; 5 mM): 0.75 ± 0.01% | Inhibition Efficiency (%) ([1]; 25 mM): 0.75 ± 0.03% | Inhibition Efficiency (%) ([1]; 50 mM): 0.75 ± 0.01% | Inhibition Efficiency (%) ([1]; 125 mM): 13.8 ± 0.15% | MIC [1]: 945 mM (≈ 98.4 mg/mL) | Inhibition Efficiency (%) ([2]; 5 mM): −32.3 ± 2.20% | Inhibition Efficiency (%) ([2]; 25 mM): −87.3 ± 4.00% | Inhibition Efficiency (%) ([2]; 50 mM): −61.7 ± 0.58% | Inhibition Efficiency (%) ([2]; 125 mM): 100% | IC50 ([2]; 4-parameter logistic fit): N.I. | MIC [2]: N.I. | Inhibition Efficiency (%) ([3]; 5 mM): 2.68 ± 0.67% | Inhibition Efficiency (%) ([3]; 25 mM): 9.15 ± 3.12% | Inhibition Efficiency (%) ([3]; 50 mM): 24.5 ± 2.23% | Inhibition Efficiency (%) ([3]; 125 mM): 26.5 ± 1.34% | MIC [3]: 510 mM (≈ 53.1 mg/mL) | Inhibition Efficiency (%) ([4]; 5 mM): 6.52 ± 3.48% | Inhibition Efficiency (%) ([4]; 25 mM): −1.35 ± 1.04% | Inhibition Efficiency (%) ([4]; 50 mM): 12.9 ± 0.94% | Inhibition Efficiency (%) ([4]; 125 mM): 17.0 ± 14.4% | IC50 ([4]; 4-parameter logistic fit): N.I. | MIC [4]: N.I. | Inhibition Efficiency (%) ([5]; 5 mM): 1.27 ± 1.07% | Inhibition Efficiency (%) ([5]; 25 mM): 14.0 ± 1.78% | Inhibition Efficiency (%) ([5]; 50 mM): 42.4 ± 5.88% | Inhibition Efficiency (%) ([5]; 125 mM): 100% | IC50 ([5]; 4-parameter logistic fit, read-out: IC50): 53 mM | MIC [5]: 111.5 mM (≈ 11.6 mg/mL) | Inhibition Efficiency (%) ([6]; 5 mM): 2.7 ± 1.26% | Inhibition Efficiency (%) ([6]; 25 mM): 24.1 ± 2.70% | Inhibition Efficiency (%) ([6]; 50 mM): 31.1 ± 3.59% | Inhibition Efficiency (%) ([6]; 125 mM): 100% | IC50 ([6]; 4-parameter logistic fit): 57.7 mM | MIC ([6]; pH 6.0, 30° C.): 133 mM (≈ 13.8 mg/mL) | IC50 [7]: 53 to 58 mM | MIC [7]: 111.5 to 133 mM

CCCCCCCC(=O)O [octanoate]
MIC [8]: < 5 mM | survival of Vibrio-challenged Artemia [9]: 80% | MIC ([10]; stated for all pathogenic growth, incl. S. agalactiae): < 5 mM

CCCCC(=O)O [valerate]
IC50 ([8]; LB pH 6): 0.84 to 11.1 mM | MIC [8]: 62.4 to 77.9 mM | survival of Vibrio-challenged Artemia [9]: 10% | IC50 ([10]; S. agalactiae): 30.2 mM

chitosan oligosaccharide lactate [COS]
Inhibition Efficiency (%) ([1]; 0.6 mM): 95.4 ± 0.01% | Inhibition Efficiency (%) ([1]; 1.2 mM): 100% | Inhibition Efficiency (%) ([1]; 3 mM): 100% | MIC [1]: 1.08 mM | Inhibition Efficiency (%) ([2]; 0.2 mM): 100% | Inhibition Efficiency (%) ([2]; 0.6 mM): 100% | Inhibition Efficiency (%) ([2]; 1.2 mM): 100% | Inhibition Efficiency (%) ([2]; 3 mM): 100% | MIC [2]: <0.2 mM | Inhibition Efficiency (%) ([3]; 0.2 mM): 60.6 ± 4.56% | Inhibition Efficiency (%) ([3]; 0.6 mM): 90.6 ± 0.91% | Inhibition Efficiency (%) ([3]; 1.2 mM): 100% | Inhibition Efficiency (%) ([3]; 3 mM): 100% | MIC [3]: 1.88 mM | Inhibition Efficiency (%) ([4]; 0.2 mM): 100% | Inhibition Efficiency (%) ([4]; 0.6 mM): 100% | Inhibition Efficiency (%) ([4]; 1.2 mM): 100% | Inhibition Efficiency (%) ([4]; 3 mM): 100% | MIC [4]: <0.2^c mM | Inhibition Efficiency (%) ([5]; 0.2 mM): 76.5 ± 1.13% | Inhibition Efficiency (%) ([5]; 0.6 mM): 93.0 ± 1.10% | Inhibition Efficiency (%) ([5]; 1.2 mM): 95.0 ± 0.23% | Inhibition Efficiency (%) ([5]; 3 mM): 100% | MIC [5]: 2.36 mM | Inhibition Efficiency (%) ([6]; 0.2 mM): 4.81 ± 0.11% | Inhibition Efficiency (%) ([6]; 0.6 mM): −7.30 ± 0.40% | Inhibition Efficiency (%) ([6]; 1.2 mM): 77.6 ± 0.28% | Inhibition Efficiency (%) ([6]; 3 mM): 74.2 ± 0.61%
